Where only a bound is given, the exact number is not on record here.

Assay in all cases: Minimum inhibitory concentration (MIC), agar plate dilution method
Type in all cases: cell-based

One experiment relates to F. varium ATCC8501. Particulars: 10^6 CFU inoculated, 37° C., 18 hours; for MIC: Fusobacterium varium, ATCC8501. The procedure: (§1) With regard to the novel compounds obtained according to this invention and the compounds of Reference Examples, their minimum inhibitory concentrations (MIC) were determined by the agar plate dilution method in accordance with the MIC measuring standard method of The Chemotherapeutic Society of Japan, whereby 10^6 colony forming units were inoculated and the minimal concentration to inhibit the microbial growth after inclubation at 37° C. for 18 hours were determined, as shown as μg/ml in Table.

The next experiment relates to Al. fecalis IFO13111. Particulars: 10^6 CFU inoculated, 37° C., 18 hours. The procedure: as §1
The subject of the next experiment is B. fragilis GM7000. To be noted: 10^6 CFU inoculated, 37° C., 18 hours; for MIC: Bacteroides fragilis, GM7000. The procedure:
as §1

In the next experiment the test system is S. aureus FAD209P JC-1. Particulars: 10^6 CFU inoculated, 37° C., 18 hours; for MIC: Staphylococcus aureus, FAD209PJC1. The procedure: as §1
Another experiment has as its system Pr. morganii IFO3848. Particulars: 10^6 CFU inoculated, 37° C., 18 hours; for MIC: Morganella morganii, IFO3848. The procedure: as §1
The subject of a further experiment is Ser. marcescens IMA 1136. To be noted: 10^6 CFU inoculated, 37° C., 18 hours; for MIC: Serratia marcescens, IMA1136. The procedure:
as §1

A further experiment concerns E. coli W3630/Rms212. To be noted: for MIC: Escherichia coli, W3630/RMS212, 18 h, read-out: minimum inhibitory concentration (MIC). The procedure: as §1
In the next experiment the test system is Pr. vulgaris GN7919. Particulars: 10^6 CFU inoculated, 37° C., 18 hours; for MIC: Proteus vulgaris, GN7919. The procedure:
as §1

The subject of the next experiment is B. fragilis V-280-1. To be noted: 10^6 CFU inoculated, 37° C., 18 hours; for MIC: Bacteroides fragilis, V2801. The procedure:
as §1

The next experiment relates to E. coli W3630/Rms213. To be noted: for MIC: Escherichia coli, W3630/RMS213, 18 h, read-out: minimum inhibitory concentration (MIC). The procedure:
as §1

For a further experiment, the system named is Ent. cloacae 963. To be noted: 10^6 CFU inoculated, 37° C., 18 hours; for MIC: Enterobacter cloacae, 963. The procedure:
as §1

Another experiment deals with E. coli NIHI JC-2. Particulars: 10^6 CFU inoculated, 37° C., 18 hours; for MIC: Escherichia coli, NIHIJC2. The procedure:
as §1

The subject of a further experiment is M. luteus ATCC9341. To be noted: 10^6 CFU inoculated, 37° C., 18 hours; for MIC: Micrococcus luteus, ATCC9341. The procedure: as §1
A further experiment relates to K. pneumoniae PC1602. Particulars: 10^6 CFU inoculated, 37° C., 18 hours; for MIC: Klebsiella pneumoniae, PC1602. The procedure:
as §1

The mark [1] stands for this setting: 10^6 CFU inoculated, 37° C., 18 hours.

`C[C@@H](O)[C@H]1C(=O)N2C(C(=O)O)=C(c3ccoc3)S[C@H]12` (relative stereo) [SUN 4196, Potassium (1'R, 5R, 6S and 1'S, 5S, 6R)-2-(3"-furanyl)-6(1'-hydroxyethyl)penem-3-carboxylate, reference compound]: the MIC in the experiment with F. varium ATCC8501 was found to be 6.25 µg/mL; in the experiment on Al. fecalis IFO13111 it was 12.5 µg/mL; with B. fragilis GM7000, 0.78 µg/mL; in the experiment on S. aureus FAD209P JC-1 it was 0.2 µg/mL; against Pr. morganii IFO3848, 12.5 µg/mL; with Ser. marcescens IMA 1136, 25 µg/mL. The MIC was 25 µg/mL in the experiment with E. coli W3630/Rms212; 3.13 µg/mL with Pr. vulgaris GN7919; 12.5 µg/mL in the experiment on B. fragilis V-280-1; 25 µg/mL with E. coli W3630/Rms213; 25 µg/mL against Ent. cloacae 963; 1.25 µg/mL with E. coli NIHI JC-2. Moreover, the MIC stood at 0.2 µg/mL in the experiment with M. luteus ATCC9341 and 3.13 µg/mL against K. pneumoniae PC1602.

For `C[C@@H](O)[C@H]1C(=O)N2C(C(=O)O)=C([C@@H]3CCC(=O)O3)S[C@H]12` [SUN 4262, Potassium (1'R, 2"S, 5R, 6S)-6-(1'-hydroxyethyl)-2-[2"-(5"-oxo)oxolanyl]penem-3-carboxylate], the MIC against F. varium ATCC8501 was 3.13 µg/mL; with Al. fecalis IFO13111 it was 3.13 µg/mL; against B. fragilis GM7000 it was 0.2 µg/mL; against S. aureus FAD209P JC-1, 0.2 µg/mL; with Pr. morganii IFO3848, 12.5 µg/mL; in the experiment with Ser. marcescens IMA 1136 it was 12.5 µg/mL. In addition, the MIC is 3.13 µg/mL in the experiment on E. coli W3630/Rms212; 3.13 µg/mL in the experiment on Pr. vulgaris GN7919; 0.2 µg/mL against B. fragilis V-280-1; 3.13 µg/mL in the experiment with E. coli W3630/Rms213; 12.5 µg/mL in the experiment with Ent. cloacae 963; 3.13 µg/mL against E. coli NIHI JC-2. The values for the MIC in the experiment with M. luteus ATCC9341 and with K. pneumoniae PC1602 were 0.2 µg/mL and 1.56 µg/mL, respectively.

With `C[C@@H](O)[C@@H]1C(=O)N2C(C(=O)[O-])=C([C@H]3CCC(=O)O3)S[C@@H]12.[K+]` [SUN 4325, Potassium (1'R, 2"R, 5S, 6R)-6-(1'-hydroxyethyl)-2[2"-(5"-oxo)oxolanyl]penem-3-carboxylate], the “minimum inhibitory concentration (MIC)” value in the experiment with F. varium ATCC8501 was more than 12.5 µg/mL; with Al. fecalis IFO13111, 12.5 µg/mL; with B. fragilis GM7000 it was 3.13 µg/mL; in the experiment on S. aureus FAD209P JC-1, 3.13 µg/mL; in the experiment on Pr. morganii IFO3848, 50 µg/mL; with Ser. marcescens IMA 1136 it was 50 µg/mL. The “minimum inhibitory concentration (MIC)” value is more than 50 µg/mL with E. coli W3630/Rms212 (setting [1]); more than 50 µg/mL in the experiment with Pr. vulgaris GN7919; more than 12.5 µg/mL with B. fragilis V-280-1; 25 µg/mL in the experiment with E. coli W3630/Rms213 (setting [1]); more than 50 µg/mL with Ent. cloacae 963; 25 µg/mL in the experiment with E. coli NIHI JC-2. Further, the entries for the “minimum inhibitory concentration (MIC)” value in the experiment with M. luteus ATCC9341 and in the experiment with K. pneumoniae PC1602 were 1.56 µg/mL and 1.25 µg/mL, respectively.

Regarding `C[C@@H](O)[C@H]1C(=O)N2C(C(=O)O)=C([C@H]3CCOC3)S[C@H]12` [SUN 4725, Potassium (1'R, 3"S, 5R, 6S)-6-(1'-hydroxyethyl)-2-(11-tetrahydrofuranyl)penem-3-carboxylate], the MIC against F. varium ATCC8501 was found to be 0.39 µg/mL; against Al. fecalis IFO13111, 0.78 µg/mL; against B. fragilis GM7000, 0.05 µg/mL; with S. aureus FAD209P JC-1 it was 0.05 µg/mL; with Pr. morganii IFO3848, 12.5 µg/mL; in the experiment on Ser. marcescens IMA 1136, 6.25 µg/mL. In addition, the MIC was determined as 3.13 µg/mL in the experiment on E. coli W3630/Rms212; 0.78 µg/mL against Pr. vulgaris GN7919; 0.05 µg/mL with B. fragilis V-280-1; 1.56 µg/mL with E. coli W3630/Rms213; 6.25 µg/mL in the experiment on Ent. cloacae 963; 1.56 µg/mL against E. coli NIHI JC-2. Besides, the MIC against M. luteus ATCC9341 and against K. pneumoniae PC1602 was 0.1 µg/mL each time.

Take `C[C@@H](O)[C@H]1C(=O)N2C(C(=O)O)=C([C@@H]3CCOC3)S[C@H]12` [SUN 4726, Potassium (1'R, 3"R, 5R, 6S)-6-(1'-hydroxyethyl)-2-(3"-tetrahydrofuranyl)penem-3-carboxylate]: the MIC in the experiment on F. varium ATCC8501 came out at 0.1 µg/mL; with Al. fecalis IFO13111 it was 1.56 µg/mL; in the experiment with B. fragilis GM7000, 0.05 µg/mL; in the experiment on S. aureus FAD209P JC-1, 0.05 µg/mL; against Pr. morganii IFO3848, 12.5 µg/mL; in the experiment on Ser. marcescens IMA 1136 it was 12.5 µg/mL. In addition, the MIC in the experiment with E. coli W3630/Rms212 is 3.13 µg/mL; in the experiment with Pr. vulgaris GN7919, 1.56 µg/mL; against B. fragilis V-280-1, 0.05 µg/mL; with E. coli W3630/Rms213 it was 1.56 µg/mL; in the experiment on Ent. cloacae 963 it was 6.25 µg/mL; in the experiment with E. coli NIHI JC-2 it was 1.56 µg/mL. Besides, the MIC with M. luteus ATCC9341 and with K. pneumoniae PC1602 was 0.05 µg/mL each time.

As for `C[C@@H](O)[C@H]1C(=O)N2C(C(=O)O)=C([C@@H]3CCCCO3)S[C@H]12` [SUN 4740, Potassium (1'R, 2"S, 5R, 6S)-6-(1'-hydroxyethyl)-2-(2"-tetrahydropyranyl)penem-3-carboxylate], the MIC in the experiment with F. varium ATCC8501 was 6.25 µg/mL; against Al. fecalis IFO13111, 6.25 µg/mL; in the experiment on B. fragilis GM7000, 0.78 µg/mL; in the experiment with S. aureus FAD209P JC-1 it was 0.1 µg/mL; with Pr. morganii IFO3848, 25 µg/mL; in the experiment with Ser. marcescens IMA 1136, more than 50 µg/mL. The MIC with E. coli W3630/Rms212 was more than 50 µg/mL; with Pr. vulgaris GN7919, 1.25 µg/mL; with B. fragilis V-280-1, 0.78 µg/mL; in the experiment on E. coli W3630/Rms213 it was more than 50 µg/mL; against Ent. cloacae 963, more than 50 µg/mL; against E. coli NIHI JC-2 it was more than 50 µg/mL. For the same molecule, the MIC against M. luteus ATCC9341 was 0.05 µg/mL; with K. pneumoniae PC1602, 3.13 µg/mL.

Consider `C[C@@H](O)[C@H]1C(=O)N2C(C(=O)O)=C([C@H]3CCCCO3)S[C@H]12` [SUN 4741, Potassium (1'R, 2"R, 5R, 6S)-6-(1'-hydroxyethyl)-2-(2"-tetrahydropyranyl)penem-3-carboxylate], for which the MIC against F. varium ATCC8501 is 0.39 µg/mL; against Al. fecalis IFO13111, 0.78 µg/mL; against B. fragilis GM7000 it was 0.1 µg/mL; with S. aureus FAD209P JC-1 it was 0.1 µg/mL; against Pr. morganii IFO3848 it was 3.13 µg/mL; against Ser. marcescens IMA 1136, 25 µg/mL. The MIC with E. coli W3630/Rms212 was 12.5 µg/mL; against Pr. vulgaris GN7919, 3.13 µg/mL; against B. fragilis V-280-1, 0.1 µg/mL; with E. coli W3630/Rms213 it was 6.25 µg/mL; in the experiment with Ent. cloacae 963, 25 µg/mL; in the experiment with E. coli NIHI JC-2, 6.25 µg/mL. In addition, the MIC against M. luteus ATCC9341 and with K. pneumoniae PC1602 was 0.1 µg/mL each time.

Take `C[C@@H](O)[C@H]1C(=O)N2C(C(=O)O)=C([C@@H]3COCCO3)S[C@H]12` [SUN 4770, Potassium (1'R, 2"S, 5R, 6S)-6-(1'-hydroxyethyl)-2-(2"-para-dioxanyl)penem-3-carboxylate]: the MIC in the experiment with F. varium ATCC8501 was 3.13 µg/mL; with Al. fecalis IFO13111, 6.25 µg/mL; with B. fragilis GM7000, 0.39 µg/mL; in the experiment on S. aureus FAD209P JC-1 it was 0.2 µg/mL; with Pr. morganii IFO3848 it was 25 µg/mL; against Ser. marcescens IMA 1136, 50 µg/mL. In addition, the MIC was determined as 12.5 µg/mL with E. coli W3630/Rms212; 6.25 µg/mL with Pr. vulgaris GN7919; 0.39 µg/mL in the experiment on B. fragilis V-280-1; 12.5 µg/mL in the experiment with E. coli W3630/Rms213; 25 µg/mL in the experiment on Ent. cloacae 963; 1.56 µg/mL against E. coli NIHI JC-2. The MIC against M. luteus ATCC9341 was 0.1 µg/mL; against K. pneumoniae PC1602 it was 0.78 µg/mL.

`C[C@@H](O)[C@H]1C(=O)N2C(C(=O)O)=C([C@H]3COCCO3)S[C@H]12` [SUN 4771, Potassium (1'R, 2"R, 5R, 6S)-6-(1'-hydroxyethyl)-2-(2"-para-dioxanyl)penem-3-carboxylate]: the MIC is 0.78 µg/mL in the experiment with F. varium ATCC8501; 0.78 µg/mL against Al. fecalis IFO13111; 0.025 µg/mL in the experiment on B. fragilis GM7000; 0.05 µg/mL in the experiment with S. aureus FAD209P JC-1; 6.25 µg/mL in the experiment with Pr. morganii IFO3848; 6.25 µg/mL against Ser. marcescens IMA 1136. The MIC came out at 1.56 µg/mL in the experiment with E. coli W3630/Rms212; 0.78 µg/mL against Pr. vulgaris GN7919; 0.05 µg/mL in the experiment on B. fragilis V-280-1; 0.73 µg/mL in the experiment with E. coli W3630/Rms213; 3.13 µg/mL in the experiment with Ent. cloacae 963; 1.56 µg/mL in the experiment with E. coli NIHI JC-2. In addition, the results for the MIC with M. luteus ATCC9341 and against K. pneumoniae PC1602 were 0.1 µg/mL and 0.05 µg/mL, respectively.
